# In patent US20020065212A1, “METHODS OF TREATING DISEASE USING SERTOLI CELLS AND ALLOGRAFTS OR XENOGRAFTS” (priority 1996, published 2002):
# What was measured:
# [1] = tested on: spontaneously diabetic BB/Wor dp rats; experiment: Metabolic parameters, serum insulin and glucagon after intratesticular islet grafts; format: in vivo, rat
# Text: This study examined insulin and glucagon secretory patterns in spontaneously diabetic bb/Wor dp rats transplanted with abdominal, intratesticular, islet grafts. Diabetic, BB/Wor dp, rats received intratesticular islet grafts from MHC-compatible BB/Wor dr rats and no immunosuppression. After a period of 74±15 days, of normoglycemia, three different groups (controls; BB/Wor dp, transplanted; and BB/Wor dp, insulin treated) were given the following challenges; (1) an oral glucose tolerance test (OGTT), (2) a single oral dose of glipizide, followed by an OGTT, and (3) arginine, by intravenous infusion. The results of this study are shown in Tables 1 and 2 and FIGS. 5 and 6.
# [2] = tested on: spontaneously diabetic BB/Wor dp rats; experiment: Pancreatic and testicular insulin and glucagon content; format: in vivo, rat
substance,measurement,setting,value
insulin,Plasma Glucose,[1]; After 2.5 months,350 ± 40 mg/dL
same,Plasma Glucose,[1]; Prior to therapy,510 ± 13+ mg/dl
same,Fasting Plasma Glucagon,"[1]; rat, in vivo",47.4 ± 4.9 pg/mL
same,Weight gain,"[1]; rat, in vivo",48 ± 14$ g
same,Pancreatic Glucagon content,[2]; pancreas,6.9 ± 0.80 ng/mg
same,Pancreatic Insulin content,[2]; pancreas,0.76 ± 0.12 µg/g
same,Testicular Glucagon content,[2]; testes fractions,0.0 ng/mg
same,Testicular Insulin content,[2]; testes fractions,0.0 µg/g
